From patent US20110021455A1, “STERILISED SUCRALFATE GEL” (PIERRE FABRE DERMO-COSMETIQUE, priority 2008, published 2011)

How the values were obtained:
[1] = Sterilisation by gamma rays; assay type: physicochemical; conditions: in the form of powder and gel; composition yellows
Text: In fact, after various tests, it seemed that sucralfate, both in the form of powder and gel, is unstable during sterilisation by gamma rays since the composition yellows.

[2] = Sterilisation with ethylene oxide; assay type: physicochemical; conditions: requires a long and costly desorption phase

stability during sterilisation by gamma rays [1]: unstable
adsorption of ethylene oxide on sucralfate during sterilisation [2]: substantial adsorption
Substance: sucralfate
